The test system of one series is huBLCL/env cells. Put plainly: CTL-mediated killing (51Cr release) of huBLCL/env cells expressing SIV env. Conditions: for Percent Specific Lysis: hu BLCL/env target cells, compound 1.0 nM added at beginning of 5 hour assay, 51Cr release. Type of series: cell-based, human.
The subject of a further series is rh BLCL/env cells. As to the kind of experiment: CTL-mediated killing (51Cr release) of rh BLCL/env cells expressing SIV env. Type of series: cell-based, rhesus monkey. To be noted: for Effect on CTL-mediated cell killing / lysis (in words): rh BLCL/env cells; for Percent Specific Lysis: rh BLCL/env target cells, compound 1.0 nM added at beginning of 5 hour assay, 51Cr release.

The test system of a further series is ClR/env cells. As to the kind of experiment: CTL-mediated killing (51Cr release) of C1R/env cells expressing SIV env. The class given is cell-based, human. To be noted: for Effect on CTL-mediated cell killing / lysis (in words): C1R/env cells; for Percent Specific Lysis: ClR/env target cells, compound 1.0 nM added at beginning of 5 hour assay, 51Cr release.
In the next series the test system is Hela T4/env cells. Put plainly: CTL-mediated killing (51Cr release) of Hela T4/env cells expressing SIV env. The class given is cell-based. To be noted: for Effect on CTL-mediated cell killing / lysis (in words): Hela T4/env cells; for Percent Specific Lysis: Hela T4/env target cells, compound 1.0 nM added at beginning of 5 hour assay, 51Cr release.
For the next series, the target named is GAPDH (Homo sapiens, UniProt P04406). Type of series: biochemical. To be noted: gel filtration of GAPDH incubated with DMD. For orientation: Size exclusion chromatography separates by hydrodynamic size, large species first.
Sequence of GAPDH (P04406 whole entry, species assumed): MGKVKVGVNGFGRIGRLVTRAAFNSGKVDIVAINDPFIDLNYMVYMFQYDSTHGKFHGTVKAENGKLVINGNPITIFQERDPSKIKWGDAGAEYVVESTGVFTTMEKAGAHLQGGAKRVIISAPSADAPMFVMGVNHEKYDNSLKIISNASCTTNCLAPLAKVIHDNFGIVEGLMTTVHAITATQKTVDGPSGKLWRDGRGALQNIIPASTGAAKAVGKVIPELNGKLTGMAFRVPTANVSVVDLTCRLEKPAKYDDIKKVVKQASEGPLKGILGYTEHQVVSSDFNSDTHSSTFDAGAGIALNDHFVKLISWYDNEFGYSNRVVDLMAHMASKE
Series [1] can be described thus: Stability of deprenyl as a function of pH of the medium. The class given is physicochemical. To be noted: pH about 3-5 versus pH about 7. The source says:
The stability of deprenyl can be affected by the pH of the medium in which the deprenyl is formulated. […] Therefore, when formulating a deprenyl compound in a pharmaceutical composition, it is preferred that the deprenyl compound be maintained at a suitable pH. In preferred embodiments, a pharmaceutical composition of the invention has a pH in the range of about 3 to about 5, more preferably about 3 to about 4. Furthermore, ethyl alcohol is a preferred solvent for improving stability of deprenyl. Thus, in certain embodiments, alcoholic or aqueous alcoholic media are preferred for the pharmaceutical compositions of the invention.

Each structure is given as a SMILES string.

Take `C#CCNC(C)Cc1ccccc1` (single isomer, unassigned; (-)) [Desm., (−)-desmethyldeprenyl]: the “Percent Specific Lysis” value with huBLCL/env cells was −1.85%; with rh BLCL/env cells, 4.34%; in the series on ClR/env cells, 6.98%; in the series with Hela T4/env cells, 30.65%. Besides, the “Effect on CTL-mediated cell killing / lysis (in words)” value in the series on huBLCL/env cells (huBLCL/env cells), with rh BLCL/env cells, with ClR/env cells and in the series on Hela T4/env cells was “reduced cell killing in all four cell lines” in each case. Besides, on GAPDH, the “Effect on association of GAPDH monomers (tetrameric vs dimeric form)” value is given as “inducing the conversion of GAPDH from the tetrameric form to the dimeric form”.

With `CC(=O)N[C@@H](CS)C(=O)O` [NAC, N-acetyl cysteine], the “Percent Specific Lysis” value was 13.41% with huBLCL/env cells, 6.32% in the series with rh BLCL/env cells, 29.12% in the series with ClR/env cells and 30.74% with Hela T4/env cells. The “Effect on CTL-mediated cell killing / lysis (in words)” value in the series with rh BLCL/env cells, with ClR/env cells and in the series on Hela T4/env cells was “effective in reducing lysis” throughout.

For the compound `C#CCN(C)C(C)Cc1ccccc1` (stereo not drawn) [deprenyl, N,α-dimethyl-N-2-propynylphenethylamine], the “Stability depending on pH” value in series [1] is recorded as “more stable at a pH in the range of about 3-5 than at a pH of about 7”.
